We go through 2 molecules from US20170268001A1, “RNAS WITH TUMOR RADIO/CHEMO-SENSITIZING AND IMMUNOMODULATORY PROPERTIES AND METHODS OF THEIR PREPARATION AND APPLICATION” (THE UNIVERSITY OF CHICAGO, priority 2016, published 2017).

For the data set, the target named is T1, RIG-I (Homo sapiens, UniProt O95786).
T1 construct: HEK293 cells overexpressing either the full length RIG-I; host or cells: HEK293; HCT116 also for the qRT-PCR validation
T1 sequence (O95786 1-925): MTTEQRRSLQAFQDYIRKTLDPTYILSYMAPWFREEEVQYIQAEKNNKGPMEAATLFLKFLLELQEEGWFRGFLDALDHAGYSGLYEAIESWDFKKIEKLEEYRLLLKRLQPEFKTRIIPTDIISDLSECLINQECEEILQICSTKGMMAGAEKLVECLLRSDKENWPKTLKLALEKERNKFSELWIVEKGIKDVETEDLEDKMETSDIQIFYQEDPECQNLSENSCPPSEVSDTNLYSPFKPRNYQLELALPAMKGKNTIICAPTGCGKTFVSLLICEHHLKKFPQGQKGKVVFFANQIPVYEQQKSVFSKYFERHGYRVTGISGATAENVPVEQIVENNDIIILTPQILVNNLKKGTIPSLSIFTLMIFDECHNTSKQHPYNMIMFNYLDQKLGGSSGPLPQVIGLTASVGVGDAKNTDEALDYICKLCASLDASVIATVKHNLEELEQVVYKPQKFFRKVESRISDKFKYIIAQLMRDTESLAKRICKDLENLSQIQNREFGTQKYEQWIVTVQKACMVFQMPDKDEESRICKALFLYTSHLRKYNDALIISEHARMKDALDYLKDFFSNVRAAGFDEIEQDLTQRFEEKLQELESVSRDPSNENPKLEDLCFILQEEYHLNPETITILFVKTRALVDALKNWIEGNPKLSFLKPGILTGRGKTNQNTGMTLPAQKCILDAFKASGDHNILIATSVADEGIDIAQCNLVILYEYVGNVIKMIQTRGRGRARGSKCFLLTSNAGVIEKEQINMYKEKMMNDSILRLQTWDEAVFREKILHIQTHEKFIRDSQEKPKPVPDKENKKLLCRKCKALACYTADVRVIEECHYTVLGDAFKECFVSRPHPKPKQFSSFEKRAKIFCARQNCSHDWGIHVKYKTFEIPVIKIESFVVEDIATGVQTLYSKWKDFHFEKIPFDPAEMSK
Briefly: UV cross-linking with quantitative real-time PCR (CLIP-PCR) of RIG-I complexes. It counts as binding. Here is the method:
Graphic representation indicating the distribution of non-coding and repetitive RNA molecules bound to RIG-I following exposure to IR as compared to total irradiated cellular RNA. Transcripts were mapped to reference genomes using RepeatMasker. See Methods for further details. […] Cells were UV crosslinked at 150 mJ/cm^2 48 hours post-IR treatment prior to cell lysis. […] FIG. 29H show IFN-b levels in culture supernatant from ICR RIG-I^+/+ and primary MEFs 24 hours post-stimulation with the same set of synthetic U1 oligonucleotides used in (FIG. 29G) The amount of U1 synthetic oligonucleotides used in all stimulation experiments was 1 μg. P values were determined using unpaired Student's t-test. Error bars are SEM. ***P<0.005.
Technically, identification of RNAs was performed as follows: HEK293 cells were transiently transfected with 3×FLAG-tagged full-size RIG-I in pEF-BOS vector (Addgene; Cambridge, Mass.). Twenty-four hours post-transfection, cells were either mock-irradiated or exposed to IR (6 Gy). Forty-eight hours post-IR, cells were lysed with a modified lysis buffer (50 mM Tris-Cl pH 7.5, 0.15 M NaCl, 0.1% NP-40, 1.0% Triton X-100, 1 mM EDTA pH8.0, 1 mM EGTA pH8.0, 10% Glycerol, 2.5 mM MgCl2, 1 mM DTT, 0.1 mM ATP, and 1× Halt Protease Inhibitor) and incubated on ice for 1 hour. Cell lysates were separated from cell debris by centrifugation at 12,000 rpm at 4° C. Protein concentration was measured by BCA kit. Anti-FLAG monoclonal antibody was added to the cell lysate at a 1:500 dilution, and incubated overnight at 4° C. Protein G sepharose beads were added to the lysates and incubated for at least 2 hours at 4° C. Beads containing the antibody-RIG-I complexes were washed five times in wash buffer (50 mM Tris-Cl pH 7.5, 0.15 M NaCl, 1 mM MgCl2, 0.05% NP-40, 1 mM DTT) and proteins were eluted from the beads using a soft elution buffer (0.5% SDS, 0.1% Tween-20, 50 mM Tris pH 8.0) for 10 minutes at room temperature with vortexing every 2-3 minutes. Proteinase K was added to the eluates and incubated at 50° C. for 45 minutes. Trizol reagent was then added to the solution, and RNA bound to RIG-I was purified following manufacturer's protocol. RNA quality was analyzed using an Agilent Bioanalyzer 2100 with Pico Series II cartridges. RNA yield was measured using the Qubit RNA Broad Range kit. For qRT-PCR validation experiments of RIG-I pulled down RNA, UV cross-linking (2 doses at 150 mJ/cm^2) was performed on HEK293 and HCT116 overexpressing RIG-I prior to cell lysis. The same protocol for pulldown and RNA purification experiments was performed as described above.

Regarding U2: snRNA, SEQ ID NO:21, the “enrichment in RIG-I: RNA complexes in irradiated samples” value (HCT116 cells overexpressing RIG-I) is listed as “significant enrichment”. In addition, for the setting “HEK293 expressing WT RIG-I, IR 6 Gy”, the “enrichment in purified RIG-I complexes, irradiated vs non-irradiated” value amounted to 6 fold.

B1: M5: rbRNA, RIG-I agonist, 81 nucleotides, SEQ ID NO:26 (nucleic acid)
chain: GACGAAGACCACAAAACCAGATAAAAAATTATTTTTTATCTGGTTTTGTGGTCTTCGTCTATAGTGAGTCGTATTAATTTC
modifications: listed as DNA, chemistry not given here
Take B1: the “binding to RIG-I” value (RIG-I: RNA complexes isolated from HCT116 cells overexpressing RIG-I) was “binds”.
